# From patent US20020151595A1, “Carboxylic acid amides having antithrombotic activity” (priority 2001, published 2002)
# Biological target: T1, human factor Xa (Homo sapiens, UniProt P00742)
# T1 construct: human factor Xa; purchased Roche
# Assay: Inhibition of factor Xa, enzyme-kinetic measurement with chromogenic substrate
# Type: biochemical
# Conditions: chromogenic substrate Chromozym X 200 μMol/l, pH 8.0, 37° C., photometric at 405 nm
# Protocol: Method: Enzyme-kinetic measurement with chromogenic substrate. The quantity of anpnitroaniline (pNA) released from the colourless chromogenic substrate by human factor Xa is determined photometrically at 405 nm. It is proportional to the activity of the enzyme used. The inhibition of the enzyme activity by the test substance (in relation to the solvent control) is determined at various concentrations of test substance and from this the IC50 is calculated, as the concentration which inhibits the factor Xa used by 50%.
# Material: Tris(hydroxymethyl)-aminomethane buffer (100 mmol) and sodium chloride (150 mMol), pH 8.0
# Factor Xa (Roche), spec. activity: 10 U/0.5 ml, final concentration: 0.175 U/ml per reaction mixture
# Substrate Chromozym X (Roche), final concentration: 200 μMol/l per reaction mixture
# Procedure: 10 μl of a 23.5-times concentrated starting solution of the test substance or solvent (control), 175 μl of tris(hydroxymethyl)-aminomethane buffer and 25 μl of a 1.65 U/ml Factor Xa working solution are incubated for 10 minutes at 37° C. After the addition of 25 μl of Chromozym X working solution ([…]) the sample is measured in a photometer (SpectraMax 250) at 405 nm for 150 seconds at 37° C.
# 1. Determining the maximum increase (deltaOD/minutes) over 3 measuring points.
# 2. Determining the % inhibition based on the solvent control.
# 3. Plotting a dosage/activity curve (% inhibition vs substance concentration).
# 4. Determining the IC50 by interpolating the X value (substance concentration) of the dosage/activity curve at Y=50% inhibition.
# T1 sequence (P00742 235-488 limits assumed): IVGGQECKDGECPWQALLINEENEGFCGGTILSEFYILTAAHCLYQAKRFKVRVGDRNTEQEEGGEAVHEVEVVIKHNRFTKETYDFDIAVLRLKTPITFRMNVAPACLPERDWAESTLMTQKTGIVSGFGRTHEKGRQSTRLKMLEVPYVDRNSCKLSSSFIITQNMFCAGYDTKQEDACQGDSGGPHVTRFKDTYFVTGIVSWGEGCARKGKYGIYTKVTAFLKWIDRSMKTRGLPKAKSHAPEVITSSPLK
# T1 sequence (P00742 41-179 partner limits assumed): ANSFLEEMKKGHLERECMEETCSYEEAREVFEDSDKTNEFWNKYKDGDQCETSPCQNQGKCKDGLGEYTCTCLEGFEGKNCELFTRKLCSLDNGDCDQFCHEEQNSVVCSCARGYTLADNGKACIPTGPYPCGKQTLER
row,IC50 [µM],SMILES
1,0.011,N=C(N)c1ccc(O)c(CC(=O)Nc2ccc(C(=O)N3CCCC3)c(C(F)(F)F)c2)c1 [(4)]
2,0.033,N=C(N)c1ccc(O)c(CC(=O)Nc2ccc(C(=O)N3CCCC3)c(Cl)c2)c1 [(3)]
3,0.32,Cc1cc(NC(=O)Cc2cc(C(=N)N)ccc2O)ccc1C(=O)C1CCCNC1 (stereo not shown) [(2)]
4,0.028,Cc1cc(NC(=O)C(C)(C)c2cccc(C(=N)N)c2)ccc1C(=O)N1CCCC1 [(1)]
